Data on 19 compounds can be found in patent publication US9957264B2 (Merck Sharp & Dohme Corp., priority 2013, dated 2018).

Test [1] addresses JAK1 (recombinant purified GST-tagged catalytic domain) (Homo sapiens (Human), UniProt P23458). As to the kind of experiment: Jak Biochemical HTRF Assay (JAK1). Particulars: [ATP] 31.8 μM. The procedure, abridged: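 Under a 120 min room-temperature, ATP-initiated reaction, peptide phosphorylation was detected by Eu-pY20/streptavidin-Dylight 650 HTRF after EDTA stop. IC50 values derive from percent inhibition curves.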
In general terms: In TR-FRET formats the signal depends on donor and acceptor labels being close together.

The target of test [2] is JAK2 (recombinant purified GST-tagged catalytic domain) (Homo sapiens (Human), UniProt O60674). As to the kind of experiment: Jak Biochemical HTRF Assay (JAK2). Particulars: [ATP] 8.5 μM. On the procedure:
Jak Biochemical HTRF Assay Protocol
The ability of compounds to inhibit the activity of JAK1, JAK2, JAK3, and Tyk2 was measured using a recombinant purified GST-tagged catalytic domain for each enzyme (Invitrogen JAK1 #M4290, JAK2 #M4290, JAK3 #M4290, Tyk2 #M4290) in an HTRF format biochemical assay. […] The basic assay protocol is as follows: First, 250 nL of diluted compounds in DMSO were dispensed into the wells of a dry 384-well Black plate (Greiner #781076) using a Labcyte Echo 555 acoustic dispenser. Subsequent reagent additions employed an Agilent Bravo. […] After equilibration, 2 μL of 10×ATP in 1× assay buffer was added to initiate the kinase reaction and the plates were shaken and then incubated at room temperature for 120 minutes. […] Plates were shaken and centrifuged and then incubated 60 minutes at room temperature and then read on a Perkin Elmer Envision (λex=337 nm, λem=665 and 615 nm, TRF delay time=20 μs). HTRF signal=10,000*665 nm reading/615 nm reading. After normalization to untreated controls, the percent inhibition of the HTRF signal at each compound concentration was calculated. The plot of percent inhibition versus the log of compound concentration was fit with a 4-parameter dose response equation to calculate IC50 values.
Final reaction conditions were:
Examples of the instant invention were evaluated in JAK1 and JAK2 in vitro binding assays as described above.

JAK2 (recombinant purified GST-tagged catalytic domain), sequence (O60674 849-1124): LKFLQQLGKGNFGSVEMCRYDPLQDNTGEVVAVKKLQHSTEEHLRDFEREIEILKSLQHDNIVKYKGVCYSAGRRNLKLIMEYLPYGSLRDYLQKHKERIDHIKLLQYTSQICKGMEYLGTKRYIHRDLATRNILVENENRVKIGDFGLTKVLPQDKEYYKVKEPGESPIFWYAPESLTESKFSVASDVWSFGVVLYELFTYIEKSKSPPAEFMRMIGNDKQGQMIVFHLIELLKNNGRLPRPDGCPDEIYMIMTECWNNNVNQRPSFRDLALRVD
JAK1 (recombinant purified GST-tagged catalytic domain), sequence (P23458 875-1153): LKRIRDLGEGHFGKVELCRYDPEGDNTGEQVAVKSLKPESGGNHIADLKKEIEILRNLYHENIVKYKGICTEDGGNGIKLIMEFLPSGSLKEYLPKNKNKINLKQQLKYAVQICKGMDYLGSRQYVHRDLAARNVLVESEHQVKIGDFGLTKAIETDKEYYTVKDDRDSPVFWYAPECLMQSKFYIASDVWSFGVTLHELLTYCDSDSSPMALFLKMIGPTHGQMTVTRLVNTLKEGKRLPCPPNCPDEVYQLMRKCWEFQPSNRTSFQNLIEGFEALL

A word on the IC50: it is the point on the concentration scale where inhibition reaches its midpoint. In the case of `Cc1cc(Nc2nn(C3(CC#N)CCN(c4ccc(C#N)cn4)CC3F)c3cc[nH]c(=O)c23)ccc1C(=O)N1CCSCC1` (stereo in doubt) [Example 15-6, 6-((3R,4R)-4-(cyanomethyl)-3-fluoro-4-(3-((3-methyl-4-(thiomorpholine-4-carbonyl)phenyl)amino)-4-oxo-4,5-dihydro-1H-pyrazolo[4,3-c]pyridin-1-yl)piperidin-1-yl)nicotinonitrile], the values for the IC50 in test [1] and in test [2] were 0.1 nM and 0.09 nM, respectively.

For the compound `CC(C)(C)OC(=O)[C@@H]1CC[C@@](CC#N)(n2nc(Nc3ccc4c(c3)CN(CC(F)(F)F)C4=O)c3c(=O)[nH]ccc32)CO1` [Example 5-95, (2S,5S)-tert-butyl 5-(cyanomethyl)-5-(4-oxo-3-((1-oxo-2-(2,2,2-trifluoroethyl)isoindolin-5-yl)amino)-4,5-dihydro-1H-pyrazolo[4,3-c]pyridin-1-yl)tetrahydro-2H-pyran-2-carboxylate], the half-maximal inhibitory concentration (IC50) in test [1] was found to be 0.07 nM; in test [2] it was 0.2 nM.

Take `CN(C(C)(C)C)S(=O)(=O)c1ccc(Nc2nn(C3(CC#N)CCOCC3)c3cc[nH]c(=O)c23)cc1` [Example 5-253, N-(tert-butyl)-4-((1-(4-(cyanomethyl)tetrahydro-2H-pyran-4-yl)-4-oxo-4,5-dihydro-1H-pyrazolo[4,3-c]pyridin-3-yl)amino)-N-methylbenzenesulfonamide]: the 50% inhibitory concentration (IC50) in test [1] worked out at 0.72 nM; in test [2], 1.4 nM.

As to `CCN(CC)S(=O)(=O)c1ccc(Nc2nn(C3(CC#N)CCCC3)c3cc[nH]c(=O)c23)cc1` [Example 5-136, 4-((1-(1-(cyanomethyl)cyclopentyl)-4-oxo-4,5-dihydro-1H-pyrazolo[4,3-c]pyridin-3-yl)amino)-N,N-diethylbenzenesulfonamide], the IC50 is 0.56 nM in test [1] and 1.01 nM in test [2].

With `CN(C)C(c1ccc(Nc2nn([C@]3(CC#N)CC[C@@H](C(=O)OC(C)(C)C)OC3)c3cc[nH]c(=O)c23)cc1)C(F)(F)F` (single isomer, unassigned) [Example 5-214, (2S,5S)-tert-butyl 5-(cyanomethyl)-5-(3-((4-((R or S)-1-(dimethylamino)-2,2,2-trifluoroethyl)phenyl)amino)-4-oxo-4,5-dihydro-1H-pyrazolo[4,3-c]pyridin-1-yl)tetrahydro-2H-pyran-2-carboxylate], the figures for the 50% inhibitory concentration (IC50) in test [1] and in test [2] were 0.2 nM and 0.32 nM, respectively.

Turning to `CC(C)S(=O)(=O)c1ccc(Nc2nn([C@]3(CC#N)CCCOC3)c3cc[nH]c(=O)c23)cc1` [Example 5-179, {(3S)-3-[3-({4-[(1-methylethyl)sulfonyl]phenyl}amino)-4-oxo-4,5-dihydro-1H-pyrazolo[4,3-c]pyridin-1-yl]tetrahydro-2H-pyran-3-yl}acetonitrile], the concentration for half-maximal inhibition (IC50) in test [1] amounted to 0.08 nM; in test [2], 0.26 nM.

Consider `CC(C)(O)[C@@H]1CC[C@@](CC#N)(n2nc(Nc3ccc(Cl)cc3)c3c(=O)[nH]ccc32)CO1` [Example 24, 2-((3S,6S)-3-(3-((4-chlorophenyl)amino)-4-oxo-4,5-dihydro-1H-pyrazolo[4,3-c]pyridin-1-yl)-6-(2-hydroxypropan-2-yl)tetrahydro-2H-pyran-3-yl)acetonitrile], for which the half-maximal inhibitory concentration (IC50) worked out at 0.34 nM in test [1] and 1.13 nM in test [2].

As to `CC(C)(C)OC(=O)[C@@H]1CC[C@@](CC#N)(n2nc(Nc3ccccc3)c3c(=O)[nH]ccc32)CO1` [Example 5-54, (2S,5S)-tert-butyl 5-(cyanomethyl)-5-(4-oxo-3-(phenylamino)-4,5-dihydro-1H-pyrazolo[4,3-c]pyridin-1-yl)tetrahydro-2H-pyran-2-carboxylate], the results for the IC50 in test [1] and in test [2] were 0.12 nM and 1.62 nM, respectively.

Consider `CC(C)OC(=O)C(C)(C)C(O)(c1ccc(Nc2nn([C@]3(CC#N)CC[C@@H](C(=O)OC(C)(C)C)OC3)c3cc[nH]c(=O)c23)cc1)C(F)(F)F` (single isomer, unassigned) [Example 5-163, (2S,5S)-tert-butyl 5-(cyanomethyl)-5-(4-oxo-3-((4-((S or R)-1,1,1-trifluoro-2-hydroxy-4-isopropoxy-3,3-dimethyl-4-oxobutan-2-yl)phenyl)amino)-4,5-dihydro-1H-pyrazolo[4,3-c]pyridin-1-yl)tetrahydro-2H-pyran-2-carboxylate], for which the IC50 in test [1] was found to be 1.96 nM; in test [2], 2.21 nM.

For the compound `COC1CN([C@H]2CC[C@](CC#N)(n3nc(Nc4ccc(OC(F)(F)F)cc4)c4c(=O)[nH]ccc43)CC2)C1` [Example 18-16, Trans 2-(4-(3-methoxyazetidin-1-yl)-1-(4-oxo-3-((4-(trifluoromethoxy)phenyl)amino)-4,5-dihydro-1H-pyrazolo[4,3-c]pyridin-1-yl)cyclohexyl)acetonitrile], the results for the IC50 in test [1] and in test [2] were 0.15 nM and 1.43 nM, respectively.

For the compound `N#CC[C@]1(n2nc(Nc3ccc(Cl)c(F)c3)c3c(=O)[nH]ccc32)CC[C@H](NC2CCCCC2)CC1` [Example 18-21, Trans 2-(1-(3-((4-chloro-3-fluorophenyl)amino)-4-oxo-4,5-dihydro-1H-pyrazolo[4,3-c]pyridin-1-yl)-4-(cyclohexylamino)cyclohexyl)acetonitrile], the 50% inhibitory concentration (IC50) in test [1] came out at 0.12 nM; in test [2] it was 64.2 nM.

Regarding `Cc1cc(Nc2nn([C@]3(CC#N)CC[C@@H](C(=O)OC(C)(C)C)OC3)c3cc[nH]c(=O)c23)ccc1C(=O)N1CCOCC1` [Example 20-5, (2S,5S)-tert-butyl 5-(cyanomethyl)-5-(3-((3-methyl-4-(morpholine-4-carbonyl)phenyl)amino)-4-oxo-4,5-dihydro-1H-pyrazolo[4,3-c]pyridin-1-yl)tetrahydro-2H-pyran-2-carboxylate], the IC50 in test [1] came out at 0.13 nM; in test [2], 0.19 nM.

With `CC(C)(C)OC(=O)N1CCC(CC#N)(n2nc(Nc3ccc(S(=O)(=O)N4CCOCC4)cc3)c3c(=O)[nH]ccc32)CC1` [Example 5-294, tert-butyl 4-(cyanomethyl)-4-(3-((4-(morpholinosulfonyl)phenyl)amino)-4-oxo-4,5-dihydro-1H-pyrazolo[4,3-c]pyridin-1-yl)piperidine-1-carboxylate], the IC50 in test [1] was found to be 0.22 nM; in test [2], 0.37 nM.

Regarding `CN(C)S(=O)(=O)c1ccc(Nc2nn(C3(CC#N)CCN(C(=O)c4cccc(Cl)c4)CC3)c3cc[nH]c(=O)c23)cc1` [Example 9-14, 4-[(1-{1-[(3-chlorophenyl)carbonyl]-4-(cyanomethyl)piperidin-4-yl}-4-oxo-4,5-dihydro-1H-pyrazolo[4,3-c]pyridin-3-yl)amino]-N,N-dimethylbenzenesulfonamide], the half-maximal inhibitory concentration (IC50) in test [1] was determined as 0.23 nM; in test [2], 1.96 nM.

As for `N#CCC1(n2nc(Nc3ccc(S(=O)(=O)C(F)F)cc3)c3c(=O)[nH]ccc32)CCN(c2ccc(C#N)cn2)CC1` [Example 15-3, 6-(4-(cyanomethyl)-4-(3-((4((difluoromethyl)sulfonyl)phenyl)amino)-4-oxo-4,5-dihydro-1H-pyrazolo[4,3-c]pyridin-1-yl)piperidin-1-yl)nicotinonitrile], the IC50 is 0.25 nM in test [1] and 0.26 nM in test [2].

Consider `CC(C)(C)OC(=O)[C@@H]1CC[C@@](CC#N)(n2nc(Nc3ccc(S(C)(=O)=O)cc3)c3c(=O)[nH]ccc32)CO1` (racemic) [Example 5-36, (2S,5S and 2R,5R)-tert-butyl 5-(cyanomethyl)-5-(3-((4-(methylsulfonyl)phenyl)amino)-4-oxo-4,5-dihydro-1H-pyrazolo[4,3-c]pyridin-1-yl)tetrahydro-2H-pyran-2-carboxylate], for which the 50% inhibitory concentration (IC50) stood at 0.09 nM in test [1] and 0.34 nM in test [2].

Regarding `CC(c1ccc(Nc2nn([C@]3(CC#N)CC[C@@H](C(=O)OC(C)(C)C)OC3)c3cc[nH]c(=O)c23)cc1)N1CCCC1` (single isomer, unassigned) [Example 5-212, (2S,5S)-tert-butyl 5-(cyanomethyl)-5-(4-oxo-3-((4-((S or R)-1-(pyrrolidin-1-yl)ethyl)phenyl)amino)-4,5-dihydro-1H-pyrazolo [4,3-c]pyridin-1-yl) tetrahydro-2H-pyran-2-carboxylate], the results for the concentration for half-maximal inhibition (IC50) in test [1] and in test [2] were 0.22 nM and 0.15 nM, respectively.

For `CC(C)(C)OC(=O)[C@@H]1CC[C@@](CC#N)(n2nc(Nc3ccc(C4(C(F)(F)F)CCNC4)cc3)c3c(=O)[nH]ccc32)CO1` (single isomer, unassigned) [Example 5-284, (2S,5S)-tert-butyl 5-(cyanomethyl)-5-(4-oxo-3-((4-((R or S)-3-(trifluoromethyl)pyrrolidin-3-yl)phenyl)amino)-4,5-dihydro-1H-pyrazolo[4,3-c]pyridin-1-yl)tetrahydro-2H-pyran-2-carboxylate], the IC50 worked out at 0.15 nM in test [1] and 0.24 nM in test [2].

For `CSCCOC(=O)N1CCC(CC#N)(n2nc(Nc3ccc(S(=O)(=O)N(C)C)cc3)c3c(=O)[nH]ccc32)CC1` [Example 11-3, 2-(methylthio)ethyl 4-(cyanomethyl)-4-(3-((4-(N,N-dimethylsulfamoyl)phenyl)amino)-4-oxo-4,5-dihydro-1H-pyrazolo[4,3-c]pyridin-1-yl)piperidine-1-carboxylate], the IC50 in test [1] stood at 0.31 nM; in test [2] it was 1.09 nM.
